Results as given in patent publication US4668669A, “Pristinamycin IIB derivatives and compositions containing them” (Rhone-Poulenc Sante, priority 1985, dated 1987).
Starred links: 1 amine or outer side, 2 acyl side, 3 side chain; linkers in the order of their positions; H or OH if unused. Positions of bridges follow the written chain, without caps; N, C: chain ends. Non-standard residues stand in square brackets, D forms with d. Residues, ends and D or L forms follow the SMILES beside them. ξ: configuration not given here. *: point of attachment. X6 = CC(CN1CCN(C)CC1)SC=C1CN([*:1])C(C(=O)[*:2])CC1=O; X4 = CN(C)CC(CN(C)C)SCC1CN([*:1])C(C(=O)[*:2])CC1=O; X5 = CN1CCN(CCCSCC2CN([*:1])C(C(=O)[*:2])CC2=O)CC1; X2 = CN1CCC(SCC2CN([*:1])C(C(=O)[*:2])CC2=O)CC1; ξNMePhe(4-NMe2) = CNC(Cc1ccc(N(C)C)cc1)C(=O)O; X1 = CN(C)CCOC=C1CN([*:1])C(C(=O)[*:2])CC1=O; X3 = CN(C)CCNC=C1CN([*:1])C(C(=O)[*:2])CC1=O; X7 = CN(C)CCCSCC1CN([*:1])C(C(=O)[*:2])CC1=O; Picolinoyl(3-OH) = O=C(c1ncccc1O)*; NMeF = CN[CH](Cc1ccccc1)C(=O)O; Phg = N[CH](C(=O)O)c1ccccc1; Abu = CC[CH](N)C(=O)O

Tests used:
[1] = Solubility in water (aqueous solution obtained); format: physicochemical; conditions: hydrochloride / dissolved with aqueous hydrochloric acid and distilled water
Text: In the examples described below, unless stated otherwise, all the products can be dissolved at a strength of at least 2%, in the form of hydrochloride.

[2] = Solubility in water (aqueous solution obtained); format: physicochemical; conditions: distilled water, no hydrochloride stated

Row | Compound | Solubility: concentration of aqueous solution, in the form of hydrochloride [1] [%] | Solubility: concentration of aqueous solution [2] [%]
1 | 5δ-(1-methyl-4-piperidyl)aminomethylenepristinamycin IA [product AT] | 10 | –
2 | 5γ-[N-(carboxymethyl)methylamino]-5γ-deoxypristinamycin IA [product K] | – | 2
3 | 5γ-deoxy-5γ-[N-(3-dimethylaminopropyl)acetamido]pristinamycin IA [product M] | 10 | –
4 | CCC1NC(=O)C(NC(=O)c2ncccc2O)C(C)OC(=O)C(c2ccccc2)NC(=O)C2CC(=O)C(CSCCCN(C)C)CN2C(=O)C(Cc2ccccc2)N(C)C(=O)C2CCCN2C1=O (centres unmarked) [product AB, 5δ-(3-dimethylaminopropyl)thiomethylvirginiamycin S] ({Picolinoyl(3-OH)}-T[Abu]P[NMeF][X7][Phg]; ester 1-C; configuration not given here) | 10 | –
5 | 5δ-(2-dimethylaminoethyl)thiomethylenepristinamycin IA [product AX] | 1 | –
6 | 5γ-deoxy-5γ-[N-(2-dimethylaminoethyl)acetamido]pristinamycin IA [product L] | 10 | –
7 | CCC1NC(=O)C(NC(=O)c2ncccc2O)C(C)OC(=O)C(c2ccccc2)NC(=O)C2CC(=O)C(CSC(CN(C)C)CN(C)C)CN2C(=O)C(Cc2ccc(N(C)C)cc2)N(C)C(=O)C2CCCN2C1=O (centres unmarked) [product AE, 5δ-[1,3-bis(dimethylamino)-2-propyl]thiomethylpristinamycin IA] ({Picolinoyl(3-OH)}-T[Abu]P[ξNMePhe(4-NMe2)][X4][Phg]; ester 1-C; configuration not given here) | 7.5 | –
8 | 5δ-(3-dimethylamino-2-propyl)thiomethylenepristinamycin IA [Reference Example 57] | 5 | –
9 | CCC1NC(=O)C(NC(=O)c2ncccc2O)C(C)OC(=O)C(c2ccccc2)NC(=O)C2CC(=O)C(=CSC(C)CN3CCN(C)CC3)CN2C(=O)C(Cc2ccc(N(C)C)cc2)N(C)C(=O)C2CCCN2C1=O (centres unmarked) [product AAN, 5δ-[3-(4-methyl-1-piperazinyl)-2-propyl]thiomethylenepristinamycin IA] ({Picolinoyl(3-OH)}-T[Abu]P[ξNMePhe(4-NMe2)][X6][Phg]; ester 1-C; configuration not given here) | 10 | –
10 | CC1=CC(O)CC(=O)Cc2nc(co2)C(=O)N2CCC([S+]([O-])CCN(C)C)C2C(=O)OC(C(C)C)C(C)C=CC(=O)NCC=C1 (centres unmarked) [Example 4, 26-(2-dimethylaminoethyl)sulphinylpristinamycin IIB] | 3.7 | –
11 | CCC1NC(=O)C(NC(=O)c2ncccc2O)C(C)OC(=O)C(c2ccccc2)NC(=O)C2CC(=O)C(=CNCCN(C)C)CN2C(=O)C(Cc2ccc(N(C)C)cc2)N(C)C(=O)C2CCCN2C1=O (centres unmarked) [product AG, 5δ-(2-dimethylaminoethyl)aminomethylenepristinamycin IA] ({Picolinoyl(3-OH)}-T[Abu]P[ξNMePhe(4-NMe2)][X3][Phg]; ester 1-C; configuration not given here) | – | 1
12 | 5γ-deoxy-(3-dimethylaminopropyl)-5γ-amino-pristinamycin IA [product A] | 10 | –
13 | 5γ-deoxy-5γ-[N-(2-dimethylaminoethyl)-N-methylamino]pristinamy cin IA [product D] | 10 | –
14 | CC1=CC(O)CC(=O)Cc2nc(co2)C(=O)N2CCC([S+]([O-])CC(Cc3ccccc3)N(C)C)C2C(=O)OC(C(C)C)C(C)C=CC(=O)NCC=C1 [Example 11, 26-[(2S)-2-dimethylamino-3-phenylpropyl]sulphinylpristinamycin IIB] | 1 | –
15 | CCCCCCCCCCNCC[S+]([O-])C1CCN2C(=O)c3coc(n3)CC(=O)CC(O)C=C(C)C=CCNC(=O)C=CC(C)C(C(C)C)OC(=O)C12 (centres unmarked) [Example 18, 26-(2-decylaminoethyl)sulphinylpristinamycin IIB] | 1 | –
16 | 5γ-deoxy-5γ-(4-diethylamino-2-methylbutyl)aminopristinamycin IA [product F] | 10 | –
17 | 5γ-Deoxy-5γ-(2-dimethylaminoethyl)aminopristinamycin IA [compound 2] | 10 | –
18 | CCN(C)CC[S+]([O-])C1CCN2C(=O)c3coc(n3)CC(=O)CC(O)C=C(C)C=CCNC(=O)C=CC(C)C(C(C)C)OC(=O)C12 (centres unmarked) [Example 5, 2-(N-methyl-N-ethyl-2-aminoethyl)sulphinylpristinamycin IIB] | 10 | –
19 | 26-(2-Diisopropylaminoethyl)sulphonylpristinamycin IIB [Example 25] | 5 | –
20 | 5γ-deoxy-5γ-dimethylaminopristinamycin IA [product B] | 2 | –
21 | CCC1NC(=O)C(NC(=O)c2ncccc2O)C(C)OC(=O)C(c2ccccc2)NC(=O)C2CC(=O)C(CSCCCN3CCN(C)CC3)CN2C(=O)C(Cc2ccc(N(C)C)cc2)N(C)C(=O)C2CCCN2C1=O (centres unmarked) [product AD, 5δ-[3-(4-methyl-1-piperazinyl)propyl]thiomethylpristinamycin IA] ({Picolinoyl(3-OH)}-T[Abu]P[ξNMePhe(4-NMe2)][X5][Phg]; ester 1-C; configuration not given here) | 10 | –
22 | CC1=CC(O)CC(=O)Cc2nc(co2)C(=O)N2CCC([S+]([O-])CCCN(C)C)C2C(=O)OC(C(C)C)C(C)C=CC(=O)NCC=C1 (centres unmarked) [Example 6, 26-(3-dimethylaminopropyl)sulphinylpristinamycin IIB] | 2 | –
23 | 5δ-(2-diethylaminoethyl)thiomethylpristinamycin IA [product AF1] | 5 | –
24 | CCC1NC(=O)C(NC(=O)c2ncccc2O)C(C)OC(=O)C(c2ccccc2)NC(=O)C2CC(=O)C(=COCCN(C)C)CN2C(=O)C(Cc2ccc(N(C)C)cc2)N(C)C(=O)C2CCCN2C1=O (centres unmarked) [product AAQ, 5δ-(2-dimethylaminoethoxymethylene)pristinamycin IA] ({Picolinoyl(3-OH)}-T[Abu]P[ξNMePhe(4-NMe2)][X1][Phg]; ester 1-C; configuration not given here) | 1 | –
25 | 5δ-[2-(4-methyl-1-piperazinyl)ethyl]thiomethylpristinamycin IA [product AC] | 5 | –
26 | 5γ-deoxy-5γ-methylaminopristinamycin IA [Reference Example 9] | 1 | –
27 | CCC1NC(=O)C(NC(=O)c2ncccc2O)C(C)OC(=O)C(c2ccccc2)NC(=O)C2CC(=O)C(CSC3CCN(C)CC3)CN2C(=O)C(Cc2ccc(N(C)C)cc2)N(C)C(=O)C2CCCN2C1=O (centres unmarked) [product AF, 5δ-(1-methyl-4-piperidyl)thiomethylpristinamycin IA] ({Picolinoyl(3-OH)}-T[Abu]P[ξNMePhe(4-NMe2)][X2][Phg]; ester 1-C; configuration not given here) | 5 | –
28 | 5δ-(3-dimethylaminopropyl)thiomethylpristinamycin IA [product AA] | 10 | –
29 | 5δ-(5-diethylamino-2-pentyl)thiomethylenepristinamycin IA [Reference Example 58] | 10 | –
